Data published in patent US20020016279A1, “Enzymatic oxidation composition and process” (Unilever Home & Personal Care USA, Division of Conopco, Inc., priority 2000, published 2002).
Where a name gives a salt, the structure may show the parent alone.

Assay: Stain bleach performance of the peroxidase/enhancer system on tomato stains (wash test, no hydrogen peroxide added)
Experimental: The potential of the enzymatic bleach system, consisting of a peroxidase enzyme and an enhancer, to bleach stains was assessed by washing cotton swatches soiled with tomato stains. The experiments were performed in 1 l beakers, to which 800 ml of wash solution were added. […]
The swatches were washed during 30 minutes at 30° C. After the wash, the swatches were tumble-dried and the reflectance spectra were measured using a Minolta spectrometer. The color differences between the swatch before and after the wash data were expressed in the CIELAB L*a*b* color space. In this color space, L* indicates lightness and a* and b* are the chromaticity coordinates. Color differences between two swatches are expressed as ΔE, which is calculated from the following equation:
ΔE={square root}{square root over (ΔL^2+Δa^2+Δb^2)}

[1] = cotton swatches soiled with tomato stains, enhancer 250 μM, peroxidase from Arthromyces ramosus 50 μg/l, wash solution 2 g/l, pH 10.5, 30 minutes at 30° C, no enhancer: 6.5

ΔE [1] | ΔE (Example 2, enhancer 50 μM, peroxidase 5 mg/l, tomato stains, peroxidase without enhancer 7.7) | ΔE (Example 2, enhancer 100 μM, peroxidase 5 mg/l, tomato stains, peroxidase without enhancer 7.7) | ΔE (Example 2, enhancer 200 μM, peroxidase 5 mg/l, tomato stains, peroxidase without enhancer 7.7) | ΔE (Example 2, enhancer 200 μM, peroxidase None, tomato stains, None/None control 7.5) | SMILES
9.8 |  |  |  |  | CCCOC(=O)C(=O)NNc1ccccc1 [Propyl [2-phenyl]hydrazide oxalate]
7.4 |  |  |  |  | O=C(NNc1ccccc1)c1ccccc1 [2′-phenylbenzohydrazide]
7.8 |  |  |  |  | CCOC(=O)C(=O)NNc1cccc(Cl)c1 [Ethyl [2-(3-chlorophenyl)]hydrazide oxalate]
9.8 |  |  |  |  | COC(=O)C(=O)NNc1ccccc1 [Methyl [2-phenyl]hydrazide oxalate]
8.1 | 8.3 | 9.0 | 9.6 | 7.4 | Nc1ccc(S(=O)(=O)NNC(=O)C(=O)NNc2ccccc2)cc1 [Ethanedioic acid, 2-[(4-aminophenyl)sulfonyl]-hydrazide-2-phenylhydrazide]
